Test results published in US7714034B2, “Photopolymerizable dental materials with bisacylphosphine oxides as initiators” (Ivoclar Vivadent AG, priority 2006, dated 2010).

Assay: solubility of the photoinitiator
Type: physicochemical
Source text: The bisacylphosphine oxides of the formula (I) absorb in the UV region and also show an absorption greater than 400 nm, so that their photolysis and radical formation can be induced by irradiation with halogen lamps customary in the dental field or also with LED lamps. The bisacylphosphine oxides of the formula (I) contain polymerizable groups and can be incorporated into polymers e.g. by copolymerization. Moreover, the bisacylphosphine oxides according to the invention are very well soluble in polar organic solvents such as acetone, ethanol, acetonitrile or tetrahydrofuran (THF) or their mixtures with water, i.e. the solubility is at least 0.01 mmol/g. It is particularly advantageous that the bisacylphosphine oxides according to the invention show a better storage stability compared with known bisacrylphosphine oxides. The compounds are characterized by a high hydrolysis stability, i.e. they are not more than 15% hydrolyzed in a mixture of […]:H2O (60:40) at 42° C. in 60 days.
To prepare the model formulation, 0.022 mmol of the photoinitiator described in Example 1 were weighed into an analysis tube and made up to 1.00 g with the above composition and dissolved accompanied by slight heating. […]

Structure (SMILES) | solubility compared with Irgacure 819 | maximum solubility (in the primer composition (DEBAMP/DHPAE/water))
C=CCOCCOCc1c(C)cc(C)c(C(=O)P(=O)(C(=O)c2c(C)cc(C)c(COCCOCC=C)c2C)c2ccccc2)c1C [BAPOmAOEM] | better solubility | 
Cc1cc(C)c(C(=O)P(=O)(C(=O)c2c(C)cc(C)cc2C)c2ccccc2)c(C)c1 [Irgacure819, bis-(2,4,6-trimethylbenzoyl)-phenylphosphine oxide] |  | ^5Irgacure 819 was used due to its low solubility in a concentration of 0.005 mmol/g (= maximum solubility)
